Results from US6590140B1, “Metal-regulated transporters and uses therefor” (Trustees of Dartmouth College, priority 1996, dated 2003).

Legend:
zrt2 (ZHY2) cells = assay: Zinc-limited growth, zrt2 mutant yeast; assay type: cell-based, Saccharomyces cerevisiae; conditions: zrt2, LZM, 16 hours
Method: Strains used were DY1457 (MATα ade6 can1 his3 leu2 trp1 ura3), ZHY1 (AMTα ade6 can1 his3 leu2 trp1 ura3 zrt1::LEU2), ZHY2 (MATα ade6 can1 his3 leu2 trp1 ura3 zrt2::HIS3), and ZHY3 (MATα ade6 can1 his3 leu2 trp1 ura3 zrt1::LEU2 zrt2::HIS3). Yeast were grown in YP or SD media (Sherman et al. (1986) Methods in Yeast Genetics, Cold Spring Harbor Laboratory, Cold Spring Harbor, N.Y.) supplemented with necessary auxotrophic requirements and either 2% glucose or 2% galactose. Zinc-limiting YP and SD agar plates contained either bathophenanthroline disulfonate (BPS, 200 μM) or EDTA (1 mM), respectively. […] The concentrations of free (i.e. unchelated) zinc were calculated using MAXCHELATOR software (Chris Patton, Stanford University). Cell number in liquid cultures was determined by measuring the absorbance of cell suspensions at 600 nm (OD600) and converting to cell number with a standard curve.
To further assess the role of the low affinity system as a source of zinc, growth of wild type and zrt2 cells in a zinc-limiting medium, LZM, supplemented with increasing amounts of zinc was examined. […] Number of cell divisions are plotted against [Zn]T and the calculated free zinc concentration ([Zn]F). […]

ZIP1 = molecular target: T1, ZIP1 (Arabidopsis thaliana, UniProt O81123); assay: Zn uptake by ZHY3 containing the ZIP1 gene; assay type: cell-based; conditions: 5 minute time course using 10 mM Zn
T1 construct: expressed in transfected cells; host or cells: S. cerevisiae ZHY3 (zrt1::LEU2 zrt2::HIS3) with an Arabidopsis cDNA clone in pFL61
T1 sequence (O81123 29-355): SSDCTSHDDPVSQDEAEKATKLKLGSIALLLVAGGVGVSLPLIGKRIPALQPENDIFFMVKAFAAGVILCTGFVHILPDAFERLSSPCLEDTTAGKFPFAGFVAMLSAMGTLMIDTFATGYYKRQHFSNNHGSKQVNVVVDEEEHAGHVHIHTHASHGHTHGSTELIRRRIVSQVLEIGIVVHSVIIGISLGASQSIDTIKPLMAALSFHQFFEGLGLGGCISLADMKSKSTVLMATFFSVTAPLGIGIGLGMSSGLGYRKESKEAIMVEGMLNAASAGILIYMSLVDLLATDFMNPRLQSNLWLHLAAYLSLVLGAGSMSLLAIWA
Method: Zinc uptake assays were performed as described previously for iron uptake (Eide et al. (1992) J. Biol. Chem. 267:20774-20781) except that ^65ZnCl2 (Amersham) and LZM-EDTA were substituted for ^59FeCI3 and LIM-EDTA, respectively. Cells were incubated for 5 minutes in LZM-EDTA plus the indicated concentration of ^65Zn, collected on glass fiber filters (Schleicher and Schuell), washed with 10 ml ice-cold SSW (1 mM EDTA, 20 mM trisodium citrate, 1 mM KH2PO4, 1 mM CaCl2, 5 mM MgSO4, 1 mM NaCl pH 4.2), and cell-associated radioactivity was measured by liquid scintillation counting. […] Michaelis-Menten kinetic values were determined using […] software (Intellikinetics, Princeton, N.J.). […] The statistical significance of the differences of values relative to controls was determined with one-way analysis of variance (ANOVA) followed by a Dunnett multiple comparison test. β-galactosidase activity was assayed in cells harvested at an OD600 of 0.5-2.0 as described by Guarente (Guarente, L. (1983) Methods Enzymol. 101:181-191) and activity is expressed as the change in absorbance at 420 nm×1000 divided by (min×ml of culture used×OD600 of the culture). Cell-associated zinc was measured in parallel cultures supplemented with tracer amounts of ^65Zn (10 μM) and nonradioactive zinc to the indicated final concentration. […]

**Q.** What does the source list for `[Zn+2]` [zinc]?
**A.** calculated free zinc [Zn]F sufficient for maximum growth yield (zrt2 (ZHY2) cells): ~6 pM; total zinc sufficient for maximum growth yield (zrt2 (ZHY2) cells): 10 µM; Zn uptake rate (ZIP1): 191 fmol/min/10^6 cells
